Experiments:
HIV-integrase = target: T1, HIV-integrase (Human immunodeficiency virus type 1 group M subtype B, UniProt P04585); assay: HIV-Integrase Inhibition Activity (SPA bead strand-transfer assay); assay type: biochemical; settings: 10 μM compound; recombinant integrase
T1 construct: 0.26 ng of recombinant integrase was incubated with the beads
Experimental: For each reaction, 5 pmole of biotin labeled substrate DNA was bound to 100 ug of Streptavidin coated PVT SPA beads (Amersham Pharmacia Biotech). 0.26 ng of recombinant integrase was incubated with the beads for 90 min at 37 C. Unbound enzyme was removed by washing the complex followed by addition of inhibitors and 0.1 fmol of P33 labeled target DNA. Reaction was stopped by adding EDTA to a final concentration of 10 mM. Samples were counted in TopCountNXT (Packard) and the CPM was used as a measure of integration. Reaction condition was as described in A. Engelman and R. Craigie, J. Virol. 69, 5908-5911 (1995). The sequences of substrate and target DNA were described in Nucleic Acid Research 22, 1121-1122 (1994). Compounds of this invention tested in this assay have IC50's of approximately 0.01 to 25 μM.

Structure (SMILES): CON(Cc1ccc(F)cc1)C(=O)/C=C(\O)C(=O)NS(=O)(=O)c1ccc(C)cc1 [Example 1, 3-Hydroxy-4-oxo-4-(toluene-4-sulfonylamino)-but-2-enoic acid (4-fluoro-benzyl)-methoxy-amide]
- inhibition at 10 µM (HIV-integrase): 99%

Structure (SMILES): CON(Cc1ccc(F)cc1)C(=O)/C=C(\O)C(=O)NS(C)(=O)=O [Example 2, 3-Hydroxy-4-methanesulfonylamino-4-oxo-but-2-enoic acid (4-fluoro-benzyl)-methoxy-amide]
- melting point: 137 °C (dec.)
- inhibition at 10 µM (HIV-integrase): 99%

Structure (SMILES): CON(Cc1ccc(F)cc1)C(=O)/C=C(\O)C(=O)NS(=O)(=O)c1nnc(NC(C)=O)s1 [Example 3, 4-(5-Acetylamino-[1,3,4]thiadiazole-2-sulfonylamino)-3-hydroxy-4-oxo-but-2-enoic acid (4-fluoro-benzyl)-methoxy-amide]
- inhibition at 10 µM (HIV-integrase): 99%

Structure (SMILES): CON(Cc1ccc(F)cc1)C(=O)/C=C(\O)C(=O)NS(=O)(=O)CC1CCC1 [Example 4, 4-Cyclobutylmethanesulfonylamino-3-hydroxy4-oxo-but-2-enoic acid (4-fluoro-benzyl)-methoxy-amide]
- inhibition at 10 µM (HIV-integrase): 99%

Structure (SMILES): CON(Cc1ccc(F)cc1)C(=O)/C=C(\O)C(=O)NS(=O)(=O)C1CCCCC1 [Example 5, 4-Cyclohexanesulfonylamino-3-hydroxy-4-oxo-but-2-enoic acid (4-fluoro-benzyl)-methoxy-amide]
- inhibition at 10 µM (HIV-integrase): 99%

Structure (SMILES): CON(Cc1ccc(F)cc1)C(=O)/C=C(\O)C(=O)NS(=O)(=O)C1CCCC1 [Example 6, 4-Cyclopentanesulfonylamino-3-hydroxy-4-oxo-but-2-enoic acid (4-fluoro-benzyl)-methoxy-amide]
- inhibition at 10 µM (HIV-integrase): 99%

Structure (SMILES): CON(Cc1ccc(F)cc1)C(=O)/C=C(\O)C(=O)NS(=O)(=O)C1CC1 [Example 7, 4-Cyclopropanesulfonylamino-3-hydroxy-4-oxo-but-2-enoic acid (4-fluoro-benzyl)-methoxy-amide]
- inhibition at 10 µM (HIV-integrase): 99%

Structure (SMILES): CON(Cc1ccc(F)cc1)C(=O)/C=C(\O)C(=O)NS(=O)(=O)c1c(C)noc1C [Example 8, 4-(3,5-Dimethyl-isoxazole-4-sulfonylamino)-3-hydroxy-4-oxo-but-2-enoic acid (4-fluoro-benzyl)-methoxy-amide]
- inhibition at 10 µM (HIV-integrase): 99%

Structure (SMILES): CON(Cc1ccc(F)cc1)C(=O)/C=C(\O)C(=O)NS(=O)(=O)c1cccc(C)n1 [Example 9, 3-Hydroxy-4-(6-methyl-pyridine-2-sulfonylamino)-4-oxo-but-2-enoic acid (4-fluoro-benzyl)-methoxy-amide]
- inhibition at 10 µM (HIV-integrase): 94%

Structure (SMILES): CON(Cc1ccc(F)cc1)C(=O)/C=C(\O)C(=O)NS(=O)(=O)c1ccc(Cl)s1 [Example 10, 4-(5-Chloro-thiophene-2-sulfonylamino)-3-hydroxy-4-oxo-but-2-enoic acid (4-fluoro-benzyl)-methoxy-amide]
- inhibition at 10 µM (HIV-integrase): 95%

Structure (SMILES): CON(Cc1ccc(F)cc1)C(=O)/C=C(\O)C(=O)NS(=O)(=O)c1ccc(NC(C)=O)cc1 [Example 11, 4-(4-Acetylamino-benzenesulfonylamino)-3-hydroxy-4-oxo-but-2-enoic acid (4-fluoro-benzyl)-methoxy-amide]
- inhibition at 10 µM (HIV-integrase): 99%

Structure (SMILES): CCOc1ccc2nc(S(=O)(=O)NC(=O)C(O)=CC(=O)N(Cc3ccc(F)cc3)OC)sc2c1 [Example 12, 4-(6-Ethoxy-benzothiazole-2-sulfonylamino)-3-hydroxy-4-oxo-but-2-enoic acid (4-fluoro-benzyl)-methoxy-amide]
- inhibition at 10 µM (HIV-integrase): 99%

Structure (SMILES): CON(Cc1ccc(F)cc1)C(=O)/C=C(\O)C(=O)NS(=O)(=O)c1sc(C)nc1C [Example 13, 4-(2,4-Dimethyl-thiazole-5-sulfonylamino)-3-hydroxy-4-oxo-but-2-enoic acid (4-fluoro-benzyl)-methoxy-amide]
- inhibition at 10 µM (HIV-integrase): 98%

Structure (SMILES): CON(Cc1ccc(F)cc1)C(=O)/C=C(\O)C(=O)NS(=O)(=O)c1cn(C)cn1 [Example 14, 3-Hydroxy-4-(1-methyl-1H-imidazole-4-sulfonylamino)-4-oxo-but-2-enoic acid (4-fluoro-benzyl)-methoxy-amide]
- inhibition at 10 µM (HIV-integrase): 93%

Structure (SMILES): CCN1CCCC1CNC(=O)c1cc(S(=O)(=O)NC(=O)/C(O)=C/C(=O)N(Cc2ccc(F)cc2)OC)ccc1OC (stereo not shown) [Example 15, N-(1-Ethyl-pyrrolidin-2-ylmethyl)-5-[3-[(4-fluoro-benzyl)-methoxy-carbamoyl]-2-hydroxy-acryloylsulfamoyl]-2-methoxy-benzamide]
- inhibition at 10 µM (HIV-integrase): 93%

Structure (SMILES): CON(Cc1ccc(F)cc1)C(=O)/C=C(\O)C(=O)NS(=O)(=O)C1CCS(=O)(=O)C1 (stereo not shown) [Example 16, 4-(1,1-Dioxo-tetrahydro-1×6-thiophene-3-sulfonylamino)-3-hydroxy-4-oxo-but-2-enoic acid (4-fluoro-benzyl)-methoxy-amide]
- inhibition at 10 µM (HIV-integrase): 98%

Structure (SMILES): CON(Cc1ccc(F)cc1)C(=O)/C=C(\O)C(=O)NS(=O)(=O)c1ccc(-c2cc(C(F)(F)F)n(C)n2)s1 [Example 17, 3-Hydroxy-4-[5-(1-methyl-5-trifluoromethyl-1H-pyrazol-3-yl)-thiophene-2-sulfonylamino]-4-oxo-but-2-enoic acid (4-fluoro-benzyl)-methoxy-amide]
- inhibition at 10 µM (HIV-integrase): 99%

Structure (SMILES): CCCC1(S(=O)(=O)NC(=O)/C(O)=C/C(=O)N(Cc2ccc(F)cc2)OC)CC1 [Example 18, 3-Hydroxy-4-oxo-4-(1-propyl-cyclopropanesulfonylamino)-but-2-enoic acid (4-fluoro-benzyl)-methoxy-amide]
- inhibition at 10 µM (HIV-integrase): 99%

Structure (SMILES): CON(Cc1ccc(F)cc1)C(=O)/C=C(\O)C(=O)NS(=O)(=O)C1(CC2CC2)CC1 [Example 19, 4-(1-Cyclopropylmethyl-cyclopropanesulfonylamino)-3-hydroxy-4-oxo-but-2-enoic acid (4-fluoro-benzyl)-methoxy-amide]
- inhibition at 10 µM (HIV-integrase): 99%

Structure (SMILES): CON(Cc1ccc(F)cc1)C(=O)/C=C(\O)C(=O)NS(=O)(=O)C1(Cc2ccccc2)CC1 [Example 20, 4-(1-Benzyl-cyclopropanesulfonylamino)-3-hydroxy-4-oxo-but-2-enoic acid (4-fluoro-benzyl)-methoxy-amide]
- inhibition at 10 µM (HIV-integrase): 99%

Structure (SMILES): CON(Cc1ccc(C(=O)O)cc1)C(=O)/C=C(\O)C(=O)NS(C)(=O)=O [Example 21, 4-{[(3-Hydroxy-4-methanesulfonylamino-4-oxo-but-2-enoyl)-methoxy-amino]-methyl}-benzoic acid]
- melting point: 119 to 124 °C
- inhibition at 10 µM (HIV-integrase): 30%

Structure (SMILES): CON(Cc1ccc(F)c(C)c1)C(=O)/C=C(\O)C(=O)NS(C)(=O)=O [Example 22, 3-Hydroxy-4-methanesulfonylamino-4-oxo-but-2-enoic acid (4-fluoro-3-methyl-benzyl)-methoxy-amide]
- melting point: 138 °C (dec.)
- inhibition at 10 µM (HIV-integrase): 99%

Structure (SMILES): CON(Cc1ccccc1OC(C)C)C(=O)/C=C(\O)C(=O)NS(C)(=O)=O [Example 23, 3-Hydroxy-4-methanesulfonylamino-4-oxo-but-2-enoic acid (2-isopropoxy-benzyl)-methoxy-amide]
- inhibition at 10 µM (HIV-integrase): 99%

Structure (SMILES): CON(Cc1ccc(C(=O)OC(C)(C)C)cc1)C(=O)/C=C(\O)C(=O)NS(C)(=O)=O [Example 24, 4-{[(3-Hydroxy-4-methanesulfonylamino-4-oxo-but-2-enoyl)-methoxy-amino]-methyl}-benzoic acid tert-butyl ester]
- inhibition at 10 µM (HIV-integrase): 15%

Structure (SMILES): CON(Cc1ccc(C)c(F)c1)C(=O)/C=C(\O)C(=O)NS(C)(=O)=O [Example 25, 3-Hydroxy-4-methanesulfonylamino-4-oxo-but-2-enoic acid (3-fluoro-4-methyl-benzyl)-methoxy-amide]
- inhibition at 10 µM (HIV-integrase): 99%

Structure (SMILES): CON(C(=O)/C=C(\O)C(=O)NS(C)(=O)=O)C(C)c1ccc(F)cc1 (stereo not shown) [Example 26, 3-Hydroxy-4-methanesulfonylamino-4-oxo-but-2-enoic acid[1-(4-fluoro-phenyl)-ethyl]-methoxy-amide]
- inhibition at 10 µM (HIV-integrase): 99%

Structure (SMILES): CON(C(=O)/C=C(\O)C(=O)NS(C)(=O)=O)C(c1ccc(F)cc1)c1ccc(F)cc1 [Example 27, 3-Hydroxy-4-methanesulfonylamino-4-oxo-but-2-enoic acid [bis-(4-fluoro-phenyl)-methyl]-methoxy-amide]
- inhibition at 10 µM (HIV-integrase): 60%

Structure (SMILES): CON(Cc1ccc(F)cc1Cl)C(=O)/C=C(\O)C(=O)NS(C)(=O)=O [Example 28, 3-Hydroxy-4-methanesulfonylamino-4-oxo-but-2-enoic acid (2-chloro-4-fluoro-benzyl)-methoxy-amide]
- melting point: 144 °C (dec.)
- inhibition at 10 µM (HIV-integrase): 99%

Structure (SMILES): CN(C(=O)/C=C(\O)C(=O)NS(C)(=O)=O)C(Cc1ccc(Cl)cc1)Cc1ccc(Cl)cc1 [Example 29, 3-Hydroxy-4-methanesulfonylamino-4-oxo-but-2-enoic acid [1-(4-chloro-benzyl)-2-(4-chloro-phenyl)-ethyl]-methyl-amide]
- inhibition at 10 µM (HIV-integrase): 86%

Structure (SMILES): CON(CCCc1ccc(F)cc1)C(=O)/C=C(\O)C(=O)NS(C)(=O)=O [Example 30, 3-Hydroxy-4-methanesulfonylamino-4-oxo-but-2-enoic acid [3-(4-fluoro-phenyl)-propyl]-methoxy-amide]
- inhibition at 10 µM (HIV-integrase): 98%
